Literature values in patent US20190328869A1, “IMMUNOTHERAPEUTIC PRODUCT AND MDSC MODULATOR COMBINATION THERAPY” (Transgene SA, priority 2016, published 2019).

How the values were obtained:
[1] = test system: circulating CD34+ MDSCs; details: head and neck cancer patients; cited from earlier work
[2] = test system: HBV-specific CD4+ and CD8+ T cells in PBMCs; details: PBMCs from chronically HBV infected patients; cited from earlier work
[3] = test system: circulating CD33+HLA-DR− MDSCs; details: patients with metastatic renal cell carcinoma; cited from earlier work

| Compound | circulating CD34+ MDSCs [1] | clinical outcome [1] | proliferation and IFN-γ production by HBV-specific CD4+ and CD8+ T cells [2] | circulating CD33+HLA-DR− MDSCs [3] |
| --- | --- | --- | --- | --- |
| C=C1CC[C@H](O)C/C1=C/C=C1\CCC[C@]2(C)[C@@H]([C@H](C)CCCC(C)(C)O)CC[C@@H]12 [25-hydroxyvitamin D3] | reduced the circulating CD34^+ MDSCs | failed to improve clinical outcome |  |  |
| CC1=C(/C=C/C(C)=C/C=C/C(C)=C/C(=O)O)C(C)(C)CCC1 [ATRA, All-trans retinoic acid] |  |  | restore the proliferation and IFN-γ production | decreased circulating CD33^+HLA-DR^− MDSCs |
